What is called IC50 is the concentration that gives 50% inhibition.

The structures appear in SMILES notation.

One experiment concerns breast line MDA468. The experiment can be described thus: In vitro cell culture growth assay (MTS), MDA468. Type of experiment: cell-based, human. Conditions: MDA468 cells, three days after drug treatment. In a few lines:
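Cells were plated and, one day later, exposed to inhibitors for three days; viable cell density was then measured by metabolic conversion of MTS dye, read as absorbance at 490 nm. Growth is expressed as percent of vehicle-treated control cells on the same plate.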

A further experiment deals with prostate line LNCap. Put plainly: In vitro cell culture growth assay (MTS), LNCap. Type of experiment: cell-based, human. The conditions noted are these: LNCap cells, three days after drug treatment.
In another experiment the target is PI3K (Homo sapiens, UniProt P42336). The experiment can be described thus: Fluorescence polarization assay for PI3K.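 Also: PI3K kinase reaction on PIP2 with ATP, 30-60 min, product sensed by GST-GRP with red probe in fluorescence polarization (mP), controls without enzyme and at zero time.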 Type of experiment: biochemical. Conditions: PI3Kα; read-out: PI3Kα IC50. A general note: Fluorescence polarisation rises when a labelled molecule tumbles more slowly, as on binding a larger partner.
Chain of PI3K (P42336 whole entry): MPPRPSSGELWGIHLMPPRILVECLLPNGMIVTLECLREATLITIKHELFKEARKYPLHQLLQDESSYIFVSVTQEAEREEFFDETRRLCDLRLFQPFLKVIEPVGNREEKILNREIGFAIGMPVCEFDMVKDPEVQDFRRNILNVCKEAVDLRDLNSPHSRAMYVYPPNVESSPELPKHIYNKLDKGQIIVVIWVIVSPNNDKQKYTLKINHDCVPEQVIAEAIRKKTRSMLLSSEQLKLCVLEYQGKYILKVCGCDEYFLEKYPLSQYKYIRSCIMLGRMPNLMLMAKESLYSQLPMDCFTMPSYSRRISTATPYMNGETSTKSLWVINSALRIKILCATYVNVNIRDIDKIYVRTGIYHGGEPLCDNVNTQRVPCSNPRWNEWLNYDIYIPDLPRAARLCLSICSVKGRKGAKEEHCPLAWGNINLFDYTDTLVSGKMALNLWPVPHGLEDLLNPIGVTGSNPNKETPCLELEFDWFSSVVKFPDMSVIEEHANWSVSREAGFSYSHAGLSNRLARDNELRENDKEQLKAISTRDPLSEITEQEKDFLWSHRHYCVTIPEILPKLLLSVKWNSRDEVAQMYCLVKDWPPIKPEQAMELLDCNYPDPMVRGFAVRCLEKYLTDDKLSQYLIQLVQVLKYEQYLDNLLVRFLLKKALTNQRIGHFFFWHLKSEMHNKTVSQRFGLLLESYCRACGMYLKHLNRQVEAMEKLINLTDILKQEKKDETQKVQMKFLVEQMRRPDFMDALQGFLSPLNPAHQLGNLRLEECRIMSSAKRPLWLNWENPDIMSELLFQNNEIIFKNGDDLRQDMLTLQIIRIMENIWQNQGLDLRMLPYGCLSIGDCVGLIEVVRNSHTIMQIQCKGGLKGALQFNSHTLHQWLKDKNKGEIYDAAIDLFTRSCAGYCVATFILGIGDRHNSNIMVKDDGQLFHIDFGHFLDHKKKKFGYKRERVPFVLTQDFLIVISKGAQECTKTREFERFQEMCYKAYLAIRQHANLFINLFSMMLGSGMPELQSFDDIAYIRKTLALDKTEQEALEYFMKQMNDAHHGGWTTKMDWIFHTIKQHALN
Chain of PI3K (P27986 whole entry partner): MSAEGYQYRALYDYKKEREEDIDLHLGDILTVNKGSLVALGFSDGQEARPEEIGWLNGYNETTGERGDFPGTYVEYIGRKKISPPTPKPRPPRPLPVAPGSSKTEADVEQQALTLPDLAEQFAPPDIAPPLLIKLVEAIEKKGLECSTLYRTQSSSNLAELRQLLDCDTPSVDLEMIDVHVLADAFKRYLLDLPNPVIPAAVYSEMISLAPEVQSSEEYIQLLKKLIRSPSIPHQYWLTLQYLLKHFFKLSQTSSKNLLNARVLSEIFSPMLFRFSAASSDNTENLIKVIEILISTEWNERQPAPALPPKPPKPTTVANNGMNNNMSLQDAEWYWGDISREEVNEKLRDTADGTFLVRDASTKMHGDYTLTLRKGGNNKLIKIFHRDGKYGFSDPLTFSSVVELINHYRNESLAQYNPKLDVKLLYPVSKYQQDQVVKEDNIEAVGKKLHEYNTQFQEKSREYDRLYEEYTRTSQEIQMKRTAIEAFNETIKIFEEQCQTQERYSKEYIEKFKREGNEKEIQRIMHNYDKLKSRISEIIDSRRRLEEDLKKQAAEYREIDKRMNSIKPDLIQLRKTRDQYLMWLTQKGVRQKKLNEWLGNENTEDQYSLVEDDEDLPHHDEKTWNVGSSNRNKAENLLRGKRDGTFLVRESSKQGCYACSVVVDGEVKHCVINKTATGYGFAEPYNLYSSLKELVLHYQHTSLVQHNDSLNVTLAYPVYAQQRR

For `O=[N+]([O-])c1ccc(-c2nc(N3CCOCC3)c3cnn(-c4ccccc4)c3n2)cc1` [Compound 119], the IC50 came out at 60000 nM in the experiment on breast line MDA468 (Homo sapiens, 72 h); 60000 nM in the experiment on prostate line LNCap (Homo sapiens, LNCaP, 72 h); 1160 nM at PI3K.
For the compound `CNC(=O)Nc1ccc(-c2nc(N3CCOCC3)c3cnn(C4CCN(C(=O)N5CCN(C)CC5)CC4)c3n2)cc1` [Example 334, 1-methyl-3-[4-(1-{1-[(4-methylpiperazin-1-yl)carbonyl]piperidin-4-yl}-4-morpholin-4-yl-1H-pyrazolo[3,4-d]pyrimidin-6-yl)phenyl]urea], the IC50 in the experiment with breast line MDA468 (Homo sapiens, 72 h) came out at 700 nM; with prostate line LNCap (Homo sapiens, LNCaP, 72 h), 400 nM; at PI3K it was 71 nM.
`CN(C)c1ccc(-c2nc(N3CCOCC3)c3cnn(-c4ccccc4)c3n2)cc1` [Compound 114]: the IC50 in the experiment on breast line MDA468 (Homo sapiens, 72 h) turned out to be 27000 nM; in the experiment with prostate line LNCap (Homo sapiens, LNCaP, 72 h) it was 15000 nM; at PI3K, 393 nM.
Consider `Cn1ccc2cc(-c3nc(N4CCOCC4)c4cnn(C5CCN(Cc6ccccc6)CC5)c4n3)ccc21` [Compound 89], for which the IC50 in the experiment with breast line MDA468 (Homo sapiens, 72 h) was determined as 20000 nM; in the experiment with prostate line LNCap (Homo sapiens, LNCaP, 72 h), 15000 nM; on PI3K, 5190 nM.
In the case of `CC(C)(C)OC(=O)N1CCC[C@H](n2ncc3c(N4CCOCC4)nc(-c4ccc(N)cc4)nc32)C1` [Compound 870, tert-butyl (3S)-3-[6-(4-aminophenyl)-4-morpholin-4-yl-1H-pyrazolo[3,4-d]pyrimidin-1-yl]piperidine-1-carboxylate], the half-inhibitory concentration (IC50) came to 26000 nM with breast line MDA468 (Homo sapiens, 72 h); 7600 nM in the experiment with prostate line LNCap (Homo sapiens, LNCaP, 72 h); 549 nM on PI3K.
On to `CNC(=O)Nc1ccc(-c2nc(N3CCOCC3)c3cnn(C4CCN(Cc5cccc(Cl)c5)CC4)c3n2)cc1` [Example 395, 1-(4-{1-[1-(3-chlorobenzyl)piperidin-4-yl]-4-morpholin-4-yl-1H-pyrazolo[3,4-d]pyrimidin-6-yl}phenyl)-3-methylurea], for which the IC50 in the experiment on breast line MDA468 (Homo sapiens, 72 h) was 500 nM; with prostate line LNCap (Homo sapiens, LNCaP, 72 h), 100 nM; on PI3K, 42 nM.
`CNC(=O)Nc1ccc(-c2nc(N3CCOCC3)c3cnn(C4CCN(C(=O)c5ccc(Br)cc5)CC4)c3n2)cc1` [Example 360, 1-(4-{1-[1-(4-bromobenzoyl)piperidin-4-yl]-4-morpholin-4-yl-1H-pyrazolo[3,4-d]pyrimidin-6-yl}phenyl)-3-methylurea]: the IC50 in the experiment with breast line MDA468 (Homo sapiens, 72 h) was determined as 200 nM; with prostate line LNCap (Homo sapiens, LNCaP, 72 h), 52 nM; on PI3K, 35 nM.
With `CNC(=O)Nc1ccc(-c2nc(N3CCOCC3)c3cnn(C4CCC(O)CC4)c3n2)cc1` (stereo not drawn) [Compound 568, 1-{4-[1-(4-hydroxycyclohexyl)-4-morpholin-4-yl-1H-pyrazolo[3,4-d]pyrimidin-6-yl]phenyl}-3-methylurea], the IC50 came to 240 nM with breast line MDA468 (Homo sapiens, 72 h); 54 nM in the experiment on prostate line LNCap (Homo sapiens, LNCaP, 72 h); 39 nM on PI3K.
As to `CNC(=O)Nc1ccc(-c2nc(N3CCOCC3)c3cnn(C4CCN(C(=O)c5cnccc5C)CC4)c3n2)cc1` [Compound 663, 1-methyl-3-[4-(1-{1-[(4-methylpyridin-3-yl)carbonyl]piperidin-4-yl}-4-morpholin-4-yl-1H-pyrazolo[3,4-d]pyrimidin-6-yl)phenyl]urea], the IC50 came out at 430 nM in the experiment on breast line MDA468, 320 nM in the experiment on prostate line LNCap and 230 nM at PI3K.
As for `CCOC(=O)N1CCC(n2ncc3c(N4CCOCC4)nc(-c4ccc(NC(=O)Nc5ccccc5)cc4)nc32)CC1` [Compound 814, ethyl 4-(6-{4-[(anilinocarbonyl)amino]phenyl}-4-morpholin-4-yl-1H-pyrazolo[3,4-d]pyrimidin-1-yl)piperidine-1-carboxylate], the IC50 in the experiment on breast line MDA468 (Homo sapiens, 72 h) was less than 27 nM; with prostate line LNCap (Homo sapiens, LNCaP, 72 h) it was less than 27 nM; at PI3K, 34 nM.
Consider `CC(C)(C)OC(=O)N1CCC(n2ncc3c(N4CCOCC4)nc(-c4ccc(NC(=O)Nc5ccon5)cc4)nc32)CC1` [Compound 882, tert-butyl 4-(6-{4-[(isoxazol-3-ylcarbamoyl)amino]phenyl}-4-morpholin-4-yl-1H-pyrazolo[3,4-d]pyrimidin-1-yl)piperidine-1-carboxylate], for which the IC50 with breast line MDA468 (Homo sapiens, 72 h) worked out at 490 nM; in the experiment with prostate line LNCap (Homo sapiens, LNCaP, 72 h) it was 70 nM; on PI3K, 113 nM.
Take `COc1cccc(C(=O)N2CCC(n3ncc4c(N5CCOCC5)nc(-c5ccc6[nH]ccc6c5)nc43)CC2)c1` [Example 48]: the IC50 in the experiment on breast line MDA468 (Homo sapiens, 72 h) was 2300 nM; with prostate line LNCap (Homo sapiens, LNCaP, 72 h), 590 nM; on PI3K it was 780 nM.
As to `CCOC(=O)Nc1ccc(-c2nc(N3CCOCC3)c3cnn(C4CCN(C(=O)c5ccccc5)CC4)c3n2)cc1` [Example 383, Ethyl {4-[1-(1-benzoylpiperidin-4-yl)-4-morpholin-4-yl-1H-pyrazolo[3,4-d]pyrimidin-6-yl]phenyl}carbamate], the IC50 in the experiment on breast line MDA468 (Homo sapiens, 72 h) came out at 4300 nM; with prostate line LNCap (Homo sapiens, LNCaP, 72 h), 900 nM; at PI3K, 1580 nM.
Regarding `O=C(NCCF)Nc1ccc(-c2nc(N3CCOCC3)c3cnn(C4CCN(C(=O)c5cccnc5)CC4)c3n2)cc1` [Compound 548, 1-(2-fluoroethyl)-3-(4-{4-morpholin-4-yl-1-[1-(pyridin-3-ylcarbonyl)piperidin-4-yl]-1H-pyrazolo[3,4-d]pyrimidin-6-yl}phenyl)urea], the IC50 in the experiment with breast line MDA468 (Homo sapiens, 72 h) was 520 nM; in the experiment on prostate line LNCap (Homo sapiens, LNCaP, 72 h) it was 630 nM; at PI3K, 541 nM.
`CC(C)(C)OC(=O)N1CCC(n2ncc3c(N4CCOCC4)nc(-c4ccc(NC(=O)Nc5ncccn5)cc4)nc32)CC1` [Compound 886, tert-butyl 4-(4-morpholin-4-yl-6-{4-[(pyrimidin-2-ylcarbamoyl)amino]phenyl}-1H-pyrazolo[3,4-d]pyrimidin-1-yl)piperidine-1-carboxylate]: the IC50 is 6700 nM with breast line MDA468 (Homo sapiens, 72 h); 2600 nM in the experiment with prostate line LNCap (Homo sapiens, LNCaP, 72 h); 1230 nM on PI3K.
Take `COC(=O)N1CCC(n2ncc3c(N4CCOCC4)nc(-c4ccc(NC(=O)Nc5ccc(CCNCCO)cc5)cc4)nc32)CC1` [Compound 921, methyl 4-[6-(4-{[(4-{2-[(2-hydroxyethyl)amino]ethyl}phenyl)carbamoyl]amino}phenyl)-4-morpholin-4-yl-1H-pyrazolo[3,4-d]pyrimidin-1-yl]piperidine-1-carboxylate]: the IC50 in the experiment with breast line MDA468 (Homo sapiens, 72 h) turned out to be 120 nM; in the experiment with prostate line LNCap (Homo sapiens, LNCaP, 72 h), 1 nM; at PI3K, 12 nM.
With `FC(F)(F)CN1CCC(n2ncc3c(N4CCOCC4)nc(-c4ccc5[nH]ccc5c4)nc32)CC1` [Compound 471, 6-(1H-indol-5-yl)-4-morpholin-4-yl-1-[1-(2,2,2-trifluoroethyl)piperidin-4-yl]-1H-pyrazolo[3,4-d]pyrimidine], the IC50 in the experiment with breast line MDA468 (Homo sapiens, 72 h) amounted to 7800 nM; in the experiment with prostate line LNCap (Homo sapiens, LNCaP, 72 h), 4000 nM; at PI3K, 2880 nM.
With `C=CCONC(=O)Nc1ccc(-c2nc(N3CCOCC3)c3cnn(-c4ccccc4)c3n2)cc1` [Compound 542, 1-(allyloxy)-3-[4-(4-morpholin-4-yl-1-phenyl-1H-pyrazolo[3,4-d]pyrimidin-6-yl)phenyl]urea], the IC50 with breast line MDA468 (Homo sapiens, 72 h) worked out at 60000 nM; in the experiment on prostate line LNCap (Homo sapiens, LNCaP, 72 h), 3000 nM; at PI3K, 896 nM.
The matching figures for `c1ccc(CN2CCC(n3ncc4c(N5CCOCC5)nc(-c5cnc6ccccc6c5)nc43)CC2)cc1` [Compound 484, 3-[1-(1-benzylpiperidin-4-yl)-4-morpholin-4-yl-1H-pyrazolo[3,4-d]pyrimidin-6-yl]quinoline]: 22000 nM, greater than 60000 nM and 6000 nM.
Consider `COC(=O)Nc1ccc(-c2nc(N3CCOCC3)c3cnn(C4CCN(C(=O)c5ccccc5)CC4)c3n2)cc1` [Example 442, methyl {4-[1-(1-benzoylpiperidin-4-yl)-4-morpholin-4-yl-1H-pyrazolo[3,4-d]pyrimidin-6-yl]phenyl}carbamate], for which the IC50 was 500 nM in the experiment with breast line MDA468 (Homo sapiens, 72 h); 150 nM with prostate line LNCap (Homo sapiens, LNCaP, 72 h); 1010 nM on PI3K.
In the case of `CNC(=O)Nc1ccc(-c2nc(N3CCOCC3)c3cnn(C4CCN(Cc5ccccn5)CC4)c3n2)cc1` [Compound 575, 1-methyl-3-(4-{4-morpholin-4-yl-1-[1-(pyridin-2-ylmethyl)piperidin-4-yl]-1H-pyrazolo[3,4-d]pyrimidin-6-yl}phenyl)urea], the IC50 in the experiment with breast line MDA468 (Homo sapiens, 72 h) is 500 nM; in the experiment on prostate line LNCap (Homo sapiens, LNCaP, 72 h) it was less than 27 nM; at PI3K it was 64 nM.
On to `COC(=O)Nc1ccc(-c2nc(N3CCOCC3)c3cnn(C4CCN(C(=O)c5ccc(F)cc5)CC4)c3n2)cc1` [Example 445, methyl (4-{1-[1-(4-fluorobenzoyl)piperidin-4-yl]-4-morpholin-4-yl-1H-pyrazolo[3,4-d]pyrimidin-6-yl}phenyl)carbamate], for which the IC50 with breast line MDA468 (Homo sapiens, 72 h) was 1600 nM; in the experiment with prostate line LNCap (Homo sapiens, LNCaP, 72 h), 580 nM; on PI3K, 989 nM.
As for `COC(=O)Nc1ccc(-c2nc(N3CCOCC3)c3cnn(C4CCN(C(=O)c5ccccn5)CC4)c3n2)cc1` [Compound 685, methyl (4-{4-morpholin-4-yl-1-[1-(pyridin-2-ylcarbonyl)piperidin-4-yl]-1H-pyrazolo[3,4-d]pyrimidin-6-yl}phenyl)carbamate], the IC50 with breast line MDA468 is 580 nM; with prostate line LNCap, 200 nM; on PI3K, 1920 nM.
In the case of `COC(=O)Nc1ccc(-c2nc(N3CCOCC3)c3cn[nH]c3n2)cc1` [Compound 525, methyl [4-(4-morpholin-4-yl-1H-pyrazolo[3,4-d]pyrimidin-6-yl)phenyl]carbamate], the IC50 was found to be 12000 nM in the experiment with breast line MDA468 (Homo sapiens, 72 h); 3000 nM with prostate line LNCap (Homo sapiens, LNCaP, 72 h); 612 nM on PI3K.
The matching figures for `Oc1cccc(-c2nc(N3CCOCC3)c3cnn(CCN4CCNCC4)c3n2)c1` [Compound 166]: 15000 nM, 5800 nM and 45 nM.
In the case of `NC(=O)c1ccc(-c2nc(N3CCOCC3)c3cnn(-c4ccccc4)c3n2)cc1` [Compound 100], the IC50 in the experiment with breast line MDA468 (Homo sapiens, 72 h) worked out at 60000 nM; in the experiment with prostate line LNCap (Homo sapiens, LNCaP, 72 h), 60000 nM; at PI3K, 359 nM.

The values above are taken from patent US20080234262A1 (Wyeth, priority 2007, published 2008).
